This assay has as its system G3BP1 NFT2. Type of assay: binding, human. Particulars: library DMS-BM; bait G3BP1 NFT2; prey CAPRIN1; AQMQGPYNFIQDSM(averaged): mean of the two overlapping peptides over the shared positions.

On to “AQMQGPYNFIQDSM(averaged) M3Q (AQQQGPYNFIQDSM)”, for which the “DMS position-specific score (PSSM value) per amino-acid substitution, averaged” value is on record as 0.0638. Next, “AQMQGPYNFIQDSM(averaged) S13T (AQMQGPYNFIQDTM)”: 0.05884.

With “AQMQGPYNFIQDSM(averaged) G5I (AQMQIPYNFIQDSM)”, the “DMS position-specific score (PSSM value) per amino-acid substitution, averaged” value turned out to be 0.01217.

In the case of AQMQGPYNFIQDSM(averaged) M3M, the “DMS position-specific score (PSSM value) per amino-acid substitution, averaged” value was 0.1084. In the case of “AQMQGPYNFIQDSM(averaged) M14V (AQMQGPYNFIQDSV)”, the “DMS position-specific score (PSSM value) per amino-acid substitution, averaged” value stood at 0.02285. The result for “AQMQGPYNFIQDSM(averaged) P6K (AQMQGKYNFIQDSM)” reads 0.01016; that for “AQMQGPYNFIQDSM(averaged) I10Y (AQMQGPYNFYQDSM)”, 0.003704.

For “AQMQGPYNFIQDSM(averaged) Y7T (AQMQGPTNFIQDSM)”, the “DMS position-specific score (PSSM value) per amino-acid substitution, averaged” value was determined as 0. The result for “AQMQGPYNFIQDSM(averaged) Q2P (APMQGPYNFIQDSM)” reads 0.007875; that for “AQMQGPYNFIQDSM(averaged) Q4S (AQMSGPYNFIQDSM)”, 0.003246; that for AQMQGPYNFIQDSM(averaged) Q2Q, 0.0522.

Regarding “AQMQGPYNFIQDSM(averaged) Q2I (AIMQGPYNFIQDSM)”, the “DMS position-specific score (PSSM value) per amino-acid substitution, averaged” value came out at 0.05266. The result for “AQMQGPYNFIQDSM(averaged) S13Y (AQMQGPYNFIQDYM)” reads 0.0135; that for “AQMQGPYNFIQDSM(averaged) M14L (AQMQGPYNFIQDSL)”, 0.006578; that for “AQMQGPYNFIQDSM(averaged) D12Y (AQMQGPYNFIQYSM)”, 0.00358.

As for “AQMQGPYNFIQDSM(averaged) N8Y (AQMQGPYYFIQDSM)”, the “DMS position-specific score (PSSM value) per amino-acid substitution, averaged” value stood at 0.0098. Next, AQMQGPYNFIQDSM(averaged) F9F: 0.9484. The result for “AQMQGPYNFIQDSM(averaged) F9T (AQMQGPYNTIQDSM)” reads 0; that for “AQMQGPYNFIQDSM(averaged) Y7I (AQMQGPINFIQDSM)”, 0.113. The result for “AQMQGPYNFIQDSM(averaged) I10A (AQMQGPYNFAQDSM)” reads 0.0009869. For the substance “AQMQGPYNFIQDSM(averaged) M3H (AQHQGPYNFIQDSM)”, the “DMS position-specific score (PSSM value) per amino-acid substitution, averaged” value is given as 0.02176. The result for “AQMQGPYNFIQDSM(averaged) D12I (AQMQGPYNFIQISM)” reads 0.0003022; that for “AQMQGPYNFIQDSM(averaged) P6T (AQMQGTYNFIQDSM)”, 0.1796.

Consider “AQMQGPYNFIQDSM(averaged) D12G (AQMQGPYNFIQGSM)”, for which the “DMS position-specific score (PSSM value) per amino-acid substitution, averaged” value was 0.006593. The result for “AQMQGPYNFIQDSM(averaged) A1F (FQMQGPYNFIQDSM)” reads 0.03963; that for “AQMQGPYNFIQDSM(averaged) Q2V (AVMQGPYNFIQDSM)”, 0.04598. In the case of “AQMQGPYNFIQDSM(averaged) F9D (AQMQGPYNDIQDSM)”, the “DMS position-specific score (PSSM value) per amino-acid substitution, averaged” value amounted to 0.037.

Regarding “AQMQGPYNFIQDSM(averaged) Q11F (AQMQGPYNFIFDSM)”, the “DMS position-specific score (PSSM value) per amino-acid substitution, averaged” value worked out at 0.006502.

“AQMQGPYNFIQDSM(averaged) S13A (AQMQGPYNFIQDAM)”: the “DMS position-specific score (PSSM value) per amino-acid substitution, averaged” value is reported as 0.1575. As for “AQMQGPYNFIQDSM(averaged) P6F (AQMQGFYNFIQDSM)”, the “DMS position-specific score (PSSM value) per amino-acid substitution, averaged” value is 0.002152.

Consider “AQMQGPYNFIQDSM(averaged) Q11M (AQMQGPYNFIMDSM)”, for which the “DMS position-specific score (PSSM value) per amino-acid substitution, averaged” value amounted to 0.0771. Next, “AQMQGPYNFIQDSM(averaged) Q11V (AQMQGPYNFIVDSM)”: 0.06659. Next, “AQMQGPYNFIQDSM(averaged) F9A (AQMQGPYNAIQDSM)”: 0; “AQMQGPYNFIQDSM(averaged) A1K (KQMQGPYNFIQDSM)”: 0.0005059. As for “AQMQGPYNFIQDSM(averaged) M3T (AQTQGPYNFIQDSM)”, the “DMS position-specific score (PSSM value) per amino-acid substitution, averaged” value came out at 0.05572.

Regarding “AQMQGPYNFIQDSM(averaged) G5P (AQMQPPYNFIQDSM)”, the “DMS position-specific score (PSSM value) per amino-acid substitution, averaged” value is 0.02397.

As to “AQMQGPYNFIQDSM(averaged) D12F (AQMQGPYNFIQFSM)”, the “DMS position-specific score (PSSM value) per amino-acid substitution, averaged” value was determined as 0.004771. The result for “AQMQGPYNFIQDSM(averaged) F9N (AQMQGPYNNIQDSM)” reads 0; that for “AQMQGPYNFIQDSM(averaged) A1W (WQMQGPYNFIQDSM)”, 0.05589; that for “AQMQGPYNFIQDSM(averaged) G5V (AQMQVPYNFIQDSM)”, 0.008337.

Take “AQMQGPYNFIQDSM(averaged) Q4R (AQMRGPYNFIQDSM)”: the “DMS position-specific score (PSSM value) per amino-acid substitution, averaged” value was 0.00079.

As to “AQMQGPYNFIQDSM(averaged) A1S (SQMQGPYNFIQDSM)”, the “DMS position-specific score (PSSM value) per amino-acid substitution, averaged” value stood at 0.001176.

With “AQMQGPYNFIQDSM(averaged) M14Y (AQMQGPYNFIQDSY)”, the “DMS position-specific score (PSSM value) per amino-acid substitution, averaged” value is listed as 0.01132. Next, “AQMQGPYNFIQDSM(averaged) N8F (AQMQGPYFFIQDSM)”: 0.00737; “AQMQGPYNFIQDSM(averaged) G5M (AQMQMPYNFIQDSM)”: 0.1116; “AQMQGPYNFIQDSM(averaged) N8A (AQMQGPYAFIQDSM)”: 0.06427.

“AQMQGPYNFIQDSM(averaged) I10D (AQMQGPYNFDQDSM)”: the “DMS position-specific score (PSSM value) per amino-acid substitution, averaged” value is given as 0.

Consider “AQMQGPYNFIQDSM(averaged) N8R (AQMQGPYRFIQDSM)”, for which the “DMS position-specific score (PSSM value) per amino-acid substitution, averaged” value amounted to 0.00733. In the case of “AQMQGPYNFIQDSM(averaged) S13H (AQMQGPYNFIQDHM)”, the “DMS position-specific score (PSSM value) per amino-acid substitution, averaged” value turned out to be 0. Next, “AQMQGPYNFIQDSM(averaged) M3W (AQWQGPYNFIQDSM)”: 0.07564.

As for “AQMQGPYNFIQDSM(averaged) Y7F (AQMQGPFNFIQDSM)”, the “DMS position-specific score (PSSM value) per amino-acid substitution, averaged” value is 0.03551.

On to “AQMQGPYNFIQDSM(averaged) Q2F (AFMQGPYNFIQDSM)”, for which the “DMS position-specific score (PSSM value) per amino-acid substitution, averaged” value is listed as 0.3525. The result for “AQMQGPYNFIQDSM(averaged) F9S (AQMQGPYNSIQDSM)” reads 0; that for “AQMQGPYNFIQDSM(averaged) Q11S (AQMQGPYNFISDSM)”, 0.05986; that for “AQMQGPYNFIQDSM(averaged) I10L (AQMQGPYNFLQDSM)”, 0.1472. For “AQMQGPYNFIQDSM(averaged) M3K (AQKQGPYNFIQDSM)”, the “DMS position-specific score (PSSM value) per amino-acid substitution, averaged” value is reported as 0.006729. The result for “AQMQGPYNFIQDSM(averaged) F9E (AQMQGPYNEIQDSM)” reads 0; that for “AQMQGPYNFIQDSM(averaged) F9P (AQMQGPYNPIQDSM)”, 0; that for “AQMQGPYNFIQDSM(averaged) G5S (AQMQSPYNFIQDSM)”, 0.1168.

For the substance “AQMQGPYNFIQDSM(averaged) N8P (AQMQGPYPFIQDSM)”, the “DMS position-specific score (PSSM value) per amino-acid substitution, averaged” value was 0.002565. On to AQMQGPYNFIQDSM(averaged) N8N, for which the “DMS position-specific score (PSSM value) per amino-acid substitution, averaged” value is reported as 0.08785. The result for “AQMQGPYNFIQDSM(averaged) S13M (AQMQGPYNFIQDMM)” reads 0; that for “AQMQGPYNFIQDSM(averaged) Q11H (AQMQGPYNFIHDSM)”, 0.008689. Turning to “AQMQGPYNFIQDSM(averaged) S13E (AQMQGPYNFIQDEM)”, the “DMS position-specific score (PSSM value) per amino-acid substitution, averaged” value was determined as 0.01271. Next, AQMQGPYNFIQDSM(averaged) Q4Q: 0.2404; “AQMQGPYNFIQDSM(averaged) D12P (AQMQGPYNFIQPSM)”: 0.216; “AQMQGPYNFIQDSM(averaged) Q4N (AQMNGPYNFIQDSM)”: 0.005313. As to “AQMQGPYNFIQDSM(averaged) Y7H (AQMQGPHNFIQDSM)”, the “DMS position-specific score (PSSM value) per amino-acid substitution, averaged” value was 0.0003057. As for “AQMQGPYNFIQDSM(averaged) M3P (AQPQGPYNFIQDSM)”, the “DMS position-specific score (PSSM value) per amino-acid substitution, averaged” value came out at 0.0009459. As to “AQMQGPYNFIQDSM(averaged) Y7D (AQMQGPDNFIQDSM)”, the “DMS position-specific score (PSSM value) per amino-acid substitution, averaged” value is 0.

With AQMQGPYNFIQDSM(averaged) I10I, the “DMS position-specific score (PSSM value) per amino-acid substitution, averaged” value was 0.4804. The result for “AQMQGPYNFIQDSM(averaged) A1E (EQMQGPYNFIQDSM)” reads 0.1606; that for “AQMQGPYNFIQDSM(averaged) I10V (AQMQGPYNFVQDSM)”, 0.004849.
